Experimental data from PubChem BioAssay (NCI).
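Briefly, cells in 96-well plates were exposed to five compound concentrations for 48 h, and endpoints were estimated by linear interpolation. GI50 = concentration required for 50% inhibition of growth. TGI denotes the concentration required for complete inhibition of growth.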

What was measured:
Experiment in all cases: growth of human tumour cells (NCI), 48 h
BT-549 breast = tested on: BT-549 breast
NCI-H522 lung = tested on: NCI-H522 lung
OVCAR-4 ovarian = tested on: OVCAR-4 ovarian
SK-MEL-28 melanoma = tested on: SK-MEL-28 melanoma
RXF 393 renal = tested on: RXF 393 renal
T-47D breast = tested on: T-47D breast
MALME-3M melanoma = tested on: MALME-3M melanoma
OVCAR-5 ovarian = tested on: OVCAR-5 ovarian
ACHN renal = tested on: ACHN renal
MDA-MB-435 = tested on: MDA-MB-435
CAKI-1 renal = tested on: CAKI-1 renal
NCI-H226 lung = tested on: NCI-H226 lung
MDA-MB-231 breast = tested on: MDA-MB-231 breast
HOP-62 NSCLC = tested on: HOP-62 NSCLC
786-0 renal = tested on: 786-0 renal
UACC-62 melanoma = tested on: UACC-62 melanoma
HOP-92 NSCLC = tested on: HOP-92 NSCLC
OVCAR-8 ovarian = tested on: OVCAR-8 ovarian
IGROV1 ovarian = tested on: IGROV1 ovarian
MCF7 breast = tested on: MCF7 breast
SK-MEL-5 melanoma = tested on: SK-MEL-5 melanoma
DU-145 prostate = tested on: DU-145 prostate
LOX IMVI melanoma = tested on: LOX IMVI melanoma
SF-539 CNS = tested on: SF-539 CNS
UACC-257 melanoma = tested on: UACC-257 melanoma
UO-31 renal = tested on: UO-31 renal
NCI-H460 lung = tested on: NCI-H460 lung
PC-3 prostate = tested on: PC-3 prostate
HCT-116 colon = tested on: HCT-116 colon
NCI-H23 lung = tested on: NCI-H23 lung
HCC-2998 colon = tested on: HCC-2998 colon
COLO 205 colon = tested on: COLO 205 colon
TK-10 renal = tested on: TK-10 renal
OVCAR-3 ovarian = tested on: OVCAR-3 ovarian
SN12C renal = tested on: SN12C renal
M14 melanoma = tested on: M14 melanoma
CCRF-CEM leukemia = tested on: CCRF-CEM leukemia
KM12 colon = tested on: KM12 colon
SK-OV-3 ovarian = tested on: SK-OV-3 ovarian
HL-60(TB) leukemia = tested on: HL-60(TB) leukemia
SW-620 colon = tested on: SW-620 colon
U251 CNS = tested on: U251 CNS
A549 NSCLC = tested on: A549 NSCLC
SK-MEL-2 melanoma = tested on: SK-MEL-2 melanoma
SNB-19 CNS = tested on: SNB-19 CNS
HCT-15 colon = tested on: HCT-15 colon
SF-295 CNS = tested on: SF-295 CNS
EKVX NSCLC = tested on: EKVX NSCLC
SF-268 CNS = tested on: SF-268 CNS
HS 578T breast = tested on: HS 578T breast
SNB-75 CNS = tested on: SNB-75 CNS
SR leukemia = tested on: SR leukemia
HT29 colon = tested on: HT29 colon
MOLT-4 leukemia = tested on: MOLT-4 leukemia
NCI/ADR-RES ovarian = tested on: NCI/ADR-RES ovarian
RPMI-8226 leukemia = tested on: RPMI-8226 leukemia
A498 renal = tested on: A498 renal

CCOC(=O)c1cc2cc(OCc3ccccc3)ccc2[nH]1
GI50 (BT-549 breast): > 100 µM
TGI (BT-549 breast): > 100 µM
GI50 (NCI-H522 lung): > 100 µM
TGI (NCI-H522 lung): > 100 µM
GI50 (OVCAR-4 ovarian): > 100 µM
TGI (OVCAR-4 ovarian): > 100 µM
GI50 (SK-MEL-28 melanoma): > 100 µM
TGI (SK-MEL-28 melanoma): > 100 µM
GI50 (RXF 393 renal): > 100 µM
TGI (RXF 393 renal): > 100 µM
GI50 (T-47D breast): > 100 µM
TGI (T-47D breast): > 100 µM
GI50 (MALME-3M melanoma): > 100 µM
TGI (MALME-3M melanoma): > 100 µM
GI50 (OVCAR-5 ovarian): > 100 µM
TGI (OVCAR-5 ovarian): > 100 µM
GI50 (ACHN renal): > 100 µM
TGI (ACHN renal): > 100 µM
GI50 (MDA-MB-435): > 100 µM
TGI (MDA-MB-435): > 100 µM
GI50 (CAKI-1 renal): > 100 µM
TGI (CAKI-1 renal): > 100 µM
GI50 (NCI-H226 lung): > 100 µM
TGI (NCI-H226 lung): > 100 µM
GI50 (MDA-MB-231 breast): 49.2 µM
TGI (MDA-MB-231 breast): > 100 µM
GI50 (HOP-62 NSCLC): 92.7 µM
TGI (HOP-62 NSCLC): > 100 µM
GI50 (786-0 renal): > 100 µM
TGI (786-0 renal): > 100 µM
GI50 (UACC-62 melanoma): > 100 µM
TGI (UACC-62 melanoma): > 100 µM
GI50 (HOP-92 NSCLC): 62.3 µM
TGI (HOP-92 NSCLC): > 100 µM
GI50 (OVCAR-8 ovarian): > 100 µM
TGI (OVCAR-8 ovarian): > 100 µM
GI50 (IGROV1 ovarian): > 100 µM
TGI (IGROV1 ovarian): > 100 µM
GI50 (MCF7 breast): > 100 µM
TGI (MCF7 breast): > 100 µM
GI50 (SK-MEL-5 melanoma): > 100 µM
TGI (SK-MEL-5 melanoma): > 100 µM
GI50 (DU-145 prostate): > 100 µM
TGI (DU-145 prostate): > 100 µM
GI50 (LOX IMVI melanoma): > 100 µM
TGI (LOX IMVI melanoma): > 100 µM
GI50 (SF-539 CNS): > 100 µM
TGI (SF-539 CNS): > 100 µM
GI50 (UACC-257 melanoma): > 100 µM
TGI (UACC-257 melanoma): > 100 µM
GI50 (UO-31 renal): > 100 µM
TGI (UO-31 renal): > 100 µM
GI50 (NCI-H460 lung): > 100 µM
TGI (NCI-H460 lung): > 100 µM
GI50 (PC-3 prostate): > 100 µM
TGI (PC-3 prostate): > 100 µM
GI50 (HCT-116 colon): > 100 µM
TGI (HCT-116 colon): > 100 µM
GI50 (NCI-H23 lung): > 100 µM
TGI (NCI-H23 lung): > 100 µM
GI50 (HCC-2998 colon): > 100 µM
TGI (HCC-2998 colon): > 100 µM
GI50 (COLO 205 colon): > 100 µM
TGI (COLO 205 colon): > 100 µM
GI50 (TK-10 renal): > 100 µM
TGI (TK-10 renal): > 100 µM
GI50 (OVCAR-3 ovarian): > 100 µM
TGI (OVCAR-3 ovarian): > 100 µM
GI50 (SN12C renal): > 100 µM
TGI (SN12C renal): > 100 µM
GI50 (M14 melanoma): > 100 µM
TGI (M14 melanoma): > 100 µM
GI50 (CCRF-CEM leukemia): > 100 µM
TGI (CCRF-CEM leukemia): > 100 µM
GI50 (KM12 colon): > 100 µM
TGI (KM12 colon): > 100 µM
GI50 (SK-OV-3 ovarian): > 100 µM
TGI (SK-OV-3 ovarian): > 100 µM
GI50 (HL-60(TB) leukemia): 12.2 µM
TGI (HL-60(TB) leukemia): 66.7 µM
GI50 (SW-620 colon): > 100 µM
TGI (SW-620 colon): > 100 µM
GI50 (U251 CNS): > 100 µM
TGI (U251 CNS): > 100 µM
GI50 (A549 NSCLC): > 100 µM
TGI (A549 NSCLC): > 100 µM
GI50 (SK-MEL-2 melanoma): > 100 µM
TGI (SK-MEL-2 melanoma): > 100 µM
GI50 (SNB-19 CNS): > 100 µM
TGI (SNB-19 CNS): > 100 µM
GI50 (HCT-15 colon): > 100 µM
TGI (HCT-15 colon): > 100 µM
GI50 (SF-295 CNS): > 100 µM
TGI (SF-295 CNS): > 100 µM
GI50 (EKVX NSCLC): > 100 µM
TGI (EKVX NSCLC): > 100 µM
GI50 (SF-268 CNS): > 100 µM
TGI (SF-268 CNS): > 100 µM
GI50 (HS 578T breast): 49.6 µM
TGI (HS 578T breast): > 100 µM
GI50 (SNB-75 CNS): 26 µM
TGI (SNB-75 CNS): > 100 µM
GI50 (SR leukemia): > 100 µM
TGI (SR leukemia): > 100 µM
GI50 (HT29 colon): > 100 µM
TGI (HT29 colon): > 100 µM
GI50 (MOLT-4 leukemia): 36.7 µM
TGI (MOLT-4 leukemia): > 100 µM
GI50 (NCI/ADR-RES ovarian): > 100 µM
TGI (NCI/ADR-RES ovarian): > 100 µM
GI50 (RPMI-8226 leukemia): > 100 µM
TGI (RPMI-8226 leukemia): > 100 µM
GI50 (A498 renal): > 100 µM
TGI (A498 renal): > 100 µM
